Laboratory results reported in patent US20130189358A1, “SAXAGLIPTIN PHARMACEUTICAL FORMULATIONS” (priority 2012, published 2013).
Where a name gives a salt, the structure may show the parent alone.

Experiment: Impurity levels 30 days after tablet manufacture (storage stability)
Format: physicochemical
Settings: 30 days after manufacture, storage at RT (15-29° C.) and NMT 67% RH; % wt impurity
Procedure: As used herein, unless indicated otherwise, the amount of saxagliptin cyclic amidine in the dosage forms following manufacture of the pharmaceutical dosage forms are measured following storage for 30 days at room temperature conditions (typically manufacture (following storage at room temperature (i.e. typically a temperature of between 15-29° C.), and at a relative humidity of not more than 67%.
Measurements of % wt impurities herein (oxamidine, cyclic amidine, etc) are taken 30 days after manufacture of the formulations [storage at ambient conditions, i.e. room temperature (RT) of between 15-29° C. and not more than 67% relative humidity (RH)].
Formulation #1 Excluding Cosmetic Coating—Analytical Data (30 Days after Tablet Manufacture)

Cyclic Amidine level: <0.03%
Greatest Unknown Impurity level: 0.19%
Oxamidine level: <0.03%
Total Impurity level: 0.23%
SMILES: N#C[C@@H]1C[C@@H]2C[C@@H]2N1C(=O)[C@@H](N)C12CC3CC(CC(O)(C3)C1)C2 [Saxagliptin HCl, (1S,3S,5S)-2-((2S)-2-amino-2-(3-hydroxyadamantan-1-yl)-acetyl)-2-azabicyclo[3.1.0]hexane-3-carbonitrile]
